Data as given in PubChem BioAssay AID1919015 (Molecular Pharmacology Branch, DTP, NCI, 2023).
pIC50: −log10 of the molar value. Values joined by “and” are separate entries in the source; they are usually repeats but may differ in a detail not shown here. Equal values may be shown once.

Test system: OVCAR-5 complex spheroids with HUVEC/MSC, viability, % test/control
Experiment: Anticancer human tumor OVCAR-5 cell line growth inhibition [AhR];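 also: spheroids exposed to compounds for 7 days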;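 as to viability, T/C: 100% = DMSO vehicle control wells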
Conditions: for viability, T/C: stronger effect = lower value; active = viability on the fitted dose curve at most 10% of control; inactive = the rest
How it was run: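 Complex tumor spheroids co-cultured with HUVEC and human MSC stroma; AhR antagonists tested in combination with standard-of-care and investigational agents. Top concentration at or near clinical Cmax (else 10 microM), half-log dilutions; growth expressed as percent test/control.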

[1] = curve of first compound, second compound 0.1 µM
[2] = curve of first compound, second compound 0.316 µM
[3] = curve of first compound, second compound 1 µM
[4] = curve of first compound, second compound 3.16 µM
[5] = curve of first compound, second compound 10 µM
[6] = second compound 0.1 µM, first compound 0.00949 µM
[7] = second compound 0.1 µM, first compound 0.03 µM
[8] = second compound 0.1 µM, first compound 0.0949 µM
[9] = second compound 0.1 µM, first compound 0.3 µM
[10] = second compound 0.1 µM, first compound 0.949 µM
[11] = second compound 0.1 µM, first compound 3 µM
[12] = second compound 0.316 µM, first compound 0.00949 µM
[13] = second compound 0.316 µM, first compound 0.03 µM
[14] = second compound 0.316 µM, first compound 0.0949 µM
[15] = second compound 0.316 µM, first compound 0.3 µM
[16] = second compound 0.316 µM, first compound 0.949 µM
[17] = second compound 0.316 µM, first compound 3 µM
[18] = second compound 1 µM, first compound 0.00949 µM
[19] = second compound 1 µM, first compound 0.03 µM
[20] = second compound 1 µM, first compound 0.0949 µM
[21] = second compound 1 µM, first compound 0.3 µM
[22] = second compound 1 µM, first compound 0.949 µM
[23] = second compound 1 µM, first compound 3 µM
[24] = second compound 3.16 µM, first compound 0.00949 µM
[25] = second compound 3.16 µM, first compound 0.03 µM
[26] = second compound 3.16 µM, first compound 0.0949 µM
[27] = second compound 3.16 µM, first compound 0.3 µM
[28] = second compound 3.16 µM, first compound 0.949 µM
[29] = second compound 3.16 µM, first compound 3 µM
[30] = second compound 10 µM, first compound 0.00949 µM
[31] = second compound 10 µM, first compound 0.03 µM
[32] = second compound 10 µM, first compound 0.0949 µM
[33] = second compound 10 µM, first compound 0.3 µM
[34] = second compound 10 µM, first compound 0.949 µM
[35] = second compound 10 µM, first compound 3 µM
[36] = second compound 0.1 µM, first compound 0.0316 µM
[37] = second compound 0.1 µM, first compound 0.1 µM
[38] = second compound 0.1 µM, first compound 0.316 µM
[39] = second compound 0.1 µM, first compound 1 µM
[40] = second compound 0.1 µM, first compound 3.16 µM
[41] = second compound 0.1 µM, first compound 10 µM
[42] = second compound 0.316 µM, first compound 0.0316 µM
[43] = second compound 0.316 µM, first compound 0.1 µM
[44] = second compound 0.316 µM, first compound 0.316 µM
[45] = second compound 0.316 µM, first compound 1 µM
[46] = second compound 0.316 µM, first compound 3.16 µM
[47] = second compound 0.316 µM, first compound 10 µM
[48] = second compound 1 µM, first compound 0.0316 µM
[49] = second compound 1 µM, first compound 0.1 µM
[50] = second compound 1 µM, first compound 0.316 µM
[51] = second compound 1 µM, first compound 1 µM
[52] = second compound 1 µM, first compound 3.16 µM
[53] = second compound 1 µM, first compound 10 µM
[54] = second compound 3.16 µM, first compound 0.0316 µM
[55] = second compound 3.16 µM, first compound 0.1 µM
[56] = second compound 3.16 µM, first compound 0.316 µM
[57] = second compound 3.16 µM, first compound 1 µM
[58] = second compound 3.16 µM, first compound 3.16 µM
[59] = second compound 3.16 µM, first compound 10 µM
[60] = second compound 10 µM, first compound 0.0316 µM
[61] = second compound 10 µM, first compound 0.1 µM
[62] = second compound 10 µM, first compound 0.316 µM
[63] = second compound 10 µM, first compound 1 µM
[64] = second compound 10 µM, first compound 3.16 µM
[65] = second compound 10 µM, first compound 10 µM

O=C(C=Cn1cnc(-c2cc(C(F)(F)F)cc(C(F)(F)F)c2)n1)NNc1cnccn1 + Cc1ccccc1N=Nc1ccc(NC(=O)c2ccnn2C)c(C)c1
5.79: pIC50 [5]
5.76: pIC50 [1]
5.67: pIC50 [4]
5.55: pIC50 [3]
5.63: pIC50 [2]
inactive: viability, T/C [6] 109% | viability, T/C [7] 113% | viability, T/C [8] 102% | viability, T/C [9] 83.4% | viability, T/C [10] 59.2% | viability, T/C [11] 42.2% | viability, T/C [12] 115% | viability, T/C [13] 109% | viability, T/C [14] 100% | viability, T/C [15] 82.4% | viability, T/C [16] 59.6% | viability, T/C [17] 47.5% | viability, T/C [18] 114% | viability, T/C [19] 116% | viability, T/C [20] 106% | viability, T/C [21] 90% | viability, T/C [22] 64.6% | viability, T/C [23] 49.2% | viability, T/C [24] 114% | viability, T/C [25] 118% | viability, T/C [26] 113% | viability, T/C [27] 90.8% | viability, T/C [28] 66.7% | viability, T/C [29] 43% | viability, T/C [30] 108% | viability, T/C [31] 111% | viability, T/C [32] 108% | viability, T/C [33] 89.3% | viability, T/C [34] 63% | viability, T/C [35] 36.4%

CCN(c1cc(-c2ccc(CN3CCOCC3)cc2)cc(C(=O)NCc2c(C)cc(C)[nH]c2=O)c1C)C1CCOCC1 + Cc1cncc(-c2nc(NCCc3c[nH]c4ccccc34)c3ncn(C(C)C)c3n2)c1
active: viability, T/C [33] 6.52% | viability, T/C [34] 2.63% | viability, T/C [35] 1.33%
inactive: viability, T/C [6] 101% | viability, T/C [7] 101% | viability, T/C [8] 98.9% | viability, T/C [9] 97.3% | viability, T/C [10] 97.1% | viability, T/C [11] 96.7% | viability, T/C [12] 102% | viability, T/C [13] 100% | viability, T/C [14] 96.5% | viability, T/C [15] 97.8% | viability, T/C [16] 94.7% | viability, T/C [17] 98.2% | viability, T/C [18] 93.4% | viability, T/C [19] 93.4% | viability, T/C [20] 97% | viability, T/C [21] 90.6% | viability, T/C [22] 89.7% | viability, T/C [23] 89.6% | viability, T/C [24] 78.5% | viability, T/C [25] 79% | viability, T/C [26] 80.2% | viability, T/C [27] 75.3% | viability, T/C [28] 72.7% | viability, T/C [29] 70.4% | viability, T/C [30] 14.8% | viability, T/C [31] 16% | viability, T/C [32] 15.4%
< 5.52: pIC50 [1] | pIC50 [2] | pIC50 [3] | pIC50 [4]
> 8.02: pIC50 [5]

COc1cc(C2c3cc4c(cc3C(OC3OC5COC(C)OC5C(O)C3O)C3COC(=O)C23)OCO4)cc(OC)c1O (configuration not stated) + CC(CO)NC(=O)c1cc(-c2ccc(Cl)cc2)nn(-c2cnn(C)c2)c1=O
5.40: pIC50 [1]
5.51: pIC50 [5]
inactive: viability, T/C [36] 106% | viability, T/C [37] 106% | viability, T/C [38] 100% | viability, T/C [39] 82.8% | viability, T/C [40] 52.7% | viability, T/C [41] 38.1% | viability, T/C [42] 105% | viability, T/C [43] 109% | viability, T/C [44] 101% | viability, T/C [45] 86% | viability, T/C [46] 52.7% | viability, T/C [47] 36.6% | viability, T/C [48] 115% | viability, T/C [49] 112% | viability, T/C [50] 107% | viability, T/C [51] 84.9% | viability, T/C [52] 59.2% | viability, T/C [53] 40.3% | viability, T/C [54] 98.9% | viability, T/C [55] 102% | viability, T/C [56] 98% | viability, T/C [57] 71.4% | viability, T/C [58] 56.2% | viability, T/C [59] 37.4% | viability, T/C [60] 96.1% | viability, T/C [61] 97.1% | viability, T/C [62] 82.6% | viability, T/C [63] 63.5% | viability, T/C [64] 52.7% | viability, T/C [65] 40.1%
5.26: pIC50 [3]
5.41: pIC50 [2] | pIC50 [4]

CC(C)CC(NC(=O)C(Cc1ccccc1)NC(=O)c1cnccn1)B(O)O (configuration not stated) + Cc1cncc(-c2nc(NCCc3c[nH]c4ccccc34)c3ncn(C(C)C)c3n2)c1
7.24: pIC50 [1] | pIC50 [2]
7.26: pIC50 [3]
> 9.02: pIC50 [5]
active: viability, T/C [31] 1.7% | viability, T/C [32] 0.78% | viability, T/C [33] 0.54%
7.39: pIC50 [4]
inactive: viability, T/C (second compound 0.1 µM, first compound 0.000949 µM) 96.8% | viability, T/C (second compound 0.1 µM, first compound 0.003 µM) 102% | viability, T/C [6] 102% | viability, T/C [7] 74.7% | viability, T/C [8] 32.2% | viability, T/C [9] 27.2% | viability, T/C (second compound 0.316 µM, first compound 0.000949 µM) 96.3% | viability, T/C (second compound 0.316 µM, first compound 0.003 µM) 100% | viability, T/C [12] 101% | viability, T/C [13] 72.1% | viability, T/C [14] 33.2% | viability, T/C [15] 23.6% | viability, T/C (second compound 1 µM, first compound 0.000949 µM) 96.7% | viability, T/C (second compound 1 µM, first compound 0.003 µM) 95% | viability, T/C [18] 96.6% | viability, T/C [19] 68.2% | viability, T/C [20] 33.6% | viability, T/C [21] 25% | viability, T/C (second compound 3.16 µM, first compound 0.000949 µM) 82.9% | viability, T/C (second compound 3.16 µM, first compound 0.003 µM) 76.3% | viability, T/C [24] 75.9% | viability, T/C [25] 59.5% | viability, T/C [26] 25.6% | viability, T/C [27] 15.4% | viability, T/C (second compound 10 µM, first compound 0.000949 µM) 19.6% | viability, T/C (second compound 10 µM, first compound 0.003 µM) 24.7% | viability, T/C [30] 15%

NS(=O)(=O)OCC1CC(n2ccc3c(NC4CCc5ccccc54)ncnc32)CC1O (configuration not stated)
inactive: viability, T/C (compound 0.0316 µM) 99.8% and 98.4% and 111% | viability, T/C (compound 0.1 µM) 74.2% and 68.1% and 75% | viability, T/C (compound 0.316 µM) 41.8% and 38.4% and 42.8% | viability, T/C (compound 1 µM) 21.2% and 16.9% and 19.1% | viability, T/C (compound 3.16 µM) 14.8% and 11.5% and 13%
6.63 and 6.71: pIC50 (curve of compound)
11.8% and 9.65% and 11.2%: viability, T/C (compound 10 µM)

O=C(c1cc(Cc2n[nH]c(=O)c3ccccc23)ccc1F)N1CCN(C(=O)C2CC2)CC1 + Cc1cncc(-c2nc(NCCc3c[nH]c4ccccc34)c3ncn(C(C)C)c3n2)c1
> 7.50: pIC50 [5]
< 5.00: pIC50 [1] | pIC50 [2] | pIC50 [3] | pIC50 [4]
inactive: viability, T/C [36] 93.8% | viability, T/C [37] 97.7% | viability, T/C [38] 93.7% | viability, T/C [39] 87.5% | viability, T/C [40] 91.5% | viability, T/C [41] 86.8% | viability, T/C [42] 93.9% | viability, T/C [43] 98.7% | viability, T/C [44] 95.4% | viability, T/C [45] 89.9% | viability, T/C [46] 84.3% | viability, T/C [47] 83.7% | viability, T/C [48] 84.5% | viability, T/C [49] 87.7% | viability, T/C [50] 91.6% | viability, T/C [51] 87% | viability, T/C [52] 86.2% | viability, T/C [53] 77.3% | viability, T/C [54] 78.2% | viability, T/C [55] 77.8% | viability, T/C [56] 75.2% | viability, T/C [57] 73.2% | viability, T/C [58] 71.8% | viability, T/C [59] 64.8% | viability, T/C [60] 14.8% | viability, T/C [61] 12.9% | viability, T/C [62] 15% | viability, T/C [63] 12% | viability, T/C [64] 13.7% | viability, T/C [65] 13.1%
